The values below come from PMC12079242, “Design, Synthesis, Biological Evaluation, and Molecular Docking Studies of Novel 1,3,4-Thiadiazole Derivatives Targeting Both Aldose Reductase and α-Glucosidase for Diabetes Mellitus” (ACS Omega, 2025).

In assay [1] the test system is L929 fibroblast cell line. The assay can be described thus: MTT cell viability assay. Conditions: Mus musculus; L929, 24 h incubation, 5–100 μM. In kind it is cell-based. The method, then:
Healthy mouse fibroblast cell line (L929) was obtained from ATCC (American Type Culture Collection) and studied. Cells were mixed with 89% DMEM (Dulbecco’s modified Eagle’s medium; Gibco, Thermo Fisher Scientific), 10% FBS (Fetal Bovine Serum; Sigma-Aldrich) and 1% penicillin (Sigma-Aldrich) solutions. The cells in which the medium was added were allowed to grow by incubating at 37 °C in an environment containing 95% humidity and 5% CO2.[66],[67]
The cytotoxic effects of all syntheses by MTT analysis on L929 cell line was investigated. 96-well plates were used for seeding cells. Approximately 1 × 10^4 cells were seeded in each well. Cells were allowed to adhere for 24 h and then the syntheses were applied at different concentrations (5–100 μM). After adding syntheses at different concentrations, the wells were incubated for 24 h. All wells without syntheses were used as controls. After the incubation, the wells were treated with MTT solution to determine metabolically active cells and incubated at 37 °C for 3 h. After the MTT interaction, the wells were emptied and DMSO solution was placed in them. The formazan crystals formed were dissolved with this solution and the number of viable cells in each well was determined by color change. The absorbance values were read at 540 nm with the help of a microplate and the values found were represented as mean ± standard deviation (±SD).[66],[67]
Background: Tetrazolium assays rely on reduction of a dye to a coloured formazan, in cell work by metabolically active cells.

Assay [2] addresses α-Glucosidase from Saccharomyces cerevisiae. Nature of the assay: α-Glycosidase inhibition assay with pNPG substrate. In kind it is biochemical. The method, then:
α-Glucosidase activity (α-Glucosidase from Saccharomyces cerevisiae) was assessed using p-nitrophenyl-D-glycopyranoside (pNPG) as the substrate, following the procedure outlined by Tao et al.[60],[61] Initially, 100 μL of phosphate buffer was mixed with 20 μL of the enzyme solution (0.15 U/mL, pH 6.8) and 10–100 μL (0.01–1 mg/mL^–1) of the sample. To ensure complete enzyme inhibition, multiple solutions were prepared in phosphate buffer. The mixture was preincubated at 35 °C for 12 min before the reaction was initiated by adding pNPG. Subsequently, 50 μL of pNPG solution (5.0 mM, pH 7.4) was added and incubated at 37 °C. Absorbance was measured spectrophotometrically at 405 nm.
Furthermore, the types of inhibition and inhibition constants (KI) were calculated from Lineweaver–Burk plots, providing detailed insights into the kinetic properties of these inhibitors.[62],[63]

With `O=C(CSc1nnc(Nc2ccccc2)s1)N(Cc1ccc([N+](=O)[O-])cc1)c1ccc(Cl)cc1` [6g, N-(4-Chlororophenyl)-2-[(5-(phenylamino)-1,3,4-thiadiazol-2-yl)thio]-N-(4-nitrobenzyl) Acetamide], the half-inhibitory concentration (IC50) is 99.5 ± 5.66 µM in assay [1] and 12.2 ± 0.87 µM in assay [2] (mean ± SEM, read-out: α-GLY IC50). Also, in assay [2] (Lineweaver–Burk plots, read-out: α-GLY KI), the Ki was 12 ± 0.97 µM.

Broadly, the IC50 is the concentration at which inhibition is half-maximal. For orientation: Ki means a measure of affinity in units of concentration, obtained from inhibition or displacement.
